Assay results published in ChEMBL document CHEMBL1141727, “Isolation and cytotoxic evaluation of marine sponge-derived norterpene peroxides” (J Nat Prod, 1998).

Columns and labels:
Type in all cases: functional
[1] = Growth inhibition of human MCF7/ADR resistant cells; conditions: NCI/ADR-RES
A549 = assay: Growth inhibition of human A549 cells
Malme-3M = assay: Growth inhibition of human MALME-3M cells
HCT-116 = assay: Growth inhibition of human HCT116 cells
HOP-62 = assay: Growth inhibition of human HOP62 cells
[2] = Growth inhibition of human […] cells
[3] = Growth inhibition of mouse M17/ADR cells assessed as zone units at 50 ug/disk by disk diffusion agar colony formation assay
NCI-H226 = assay: Growth inhibition of human NCI-H226 cells
L1210 = assay: Growth inhibition of mouse L1210 cells assessed as zone units at 50 ug/disk by disk diffusion agar colony formation assay
PO3 = assay: Growth inhibition of mouse PO3 cells assessed as zone units at 50 ug/disk by disk diffusion agar colony formation assay
T47D = assay: Growth inhibition of human T47D cells
NCI-H460 = assay: Growth inhibition of human NCI-H460 cells
SN12C = assay: Growth inhibition of human SN12C cells
HCT-15 = assay: Growth inhibition of human HCT15 cells
SK-MEL-2 = assay: Growth inhibition of human SK-MEL-2 cells
OVCAR-5 = assay: Growth inhibition of human OVCAR5 cells
MCF7 = assay: Growth inhibition of human MCF7 cells
NCI-H322M = assay: Growth inhibition of human NCI-H322M cells
SK-MEL-5 = assay: Growth inhibition of human SK-MEL-5 cells
HL-60(TB) = assay: Growth inhibition of human HL-60(TB) cells
[4] = Growth inhibition of human Hs 578T cells
HCC 2998 = assay: Growth inhibition of human HCC2998 cells
SK-OV-3 = assay: Growth inhibition of human SKOV3 cells
COLO 205 = assay: Growth inhibition of human COLO205 cells
BT-549 = assay: Growth inhibition of human BT549 cells
[5] = Growth inhibition of human H116 cells assessed as zone units at 50 ug/disk by disk diffusion agar colony formation assay
EKVX = assay: Growth inhibition of human EKVX cells
UO-31 = assay: Growth inhibition of human UO31 cells
MDA-MB-435 = assay: Growth inhibition of human MDA-MB-435 cells
786-0 = assay: Growth inhibition of human 786-0 cells
HT-29 = assay: Growth inhibition of human HT-29 cells
SK-MEL-28 = assay: Growth inhibition of human SK-MEL-28 cells
UACC-257 = assay: Growth inhibition of human UACC257 cells
ACHN = assay: Growth inhibition of human ACHN cells
MDA-N = assay: Growth inhibition of human MDA-N cells
A498 = assay: Growth inhibition of human A498 cells
NCI-H23 = assay: Growth inhibition of human NCI-H23 cells
SF-539 = assay: Growth inhibition of human SF539 cells
IGROV-1 = assay: Growth inhibition of human IGROV1 cells
U-251 = assay: Growth inhibition of human U251 cells
SW-620 = assay: Growth inhibition of human SW620 cells
DU-145 = assay: Growth inhibition of human DU145 cells
M14 = assay: Growth inhibition of human M14 cells
CAKI-1 = assay: Growth inhibition of human Caki1 cells
P388 = assay: Growth inhibition of mouse P388 cells assessed as zone units at 50 ug/disk by disk diffusion agar colony formation assay
SNB-19 = assay: Growth inhibition of human SNB19 cells
HOP-92 = assay: Growth inhibition of human HOP92 cells
MOLT-4 = assay: Growth inhibition of human MOLT4 cells
CCRF-CEM = assay: Growth inhibition of human CCRF-CEM cells
MDA-MB-231 = assay: Growth inhibition of human MDA-MB-231 cells
UACC-62 = assay: Growth inhibition of human UACC62 cells
OVCAR-3 = assay: Growth inhibition of human OVCAR-3 cells
OVCAR-8 = assay: Growth inhibition of human OVCAR8 cells
KM12 = assay: Growth inhibition of human KM12 cells
SF-295 = assay: Growth inhibition of human SF295 cells
RXF 393 = assay: Growth inhibition of human […] cells
SNB-75 = assay: Growth inhibition of human SNB75 cells
NCI-H522 = assay: Growth inhibition of human NCI-H522 cells
SR = assay: Growth inhibition of human SR cells
OVCAR-4 = assay: Growth inhibition of human OVCAR4 cells
LOX IMVI = assay: Growth inhibition of human LOXIMVI cells
SF-268 = assay: Growth inhibition of human SF268 cells
TK-10 = assay: Growth inhibition of human TK10 cells
MC-38 = assay: Growth inhibition of mouse C38 cells assessed as zone units at 50 ug/disk by disk diffusion agar colony formation assay
PC-3 = assay: Growth inhibition of human PC3 cells
CX-1 = assay: Growth inhibition of human CX-1 cells assessed as zone units at 50 ug/disk by disk diffusion agar colony formation assay

Work on `CC(=O)CC/C=C(\C)CCC1=C(C)CCCC1(C)C` yielded a GI50 [1] of over 15 µM, a GI50 (A549) of over 15 µM and a GI50 (Malme-3M) of over 15 µM. It also gave a GI50 (HCT-116) of over 15 µM, a GI50 (HOP-62) of over 15 µM and a GI50 [2] of over 15 µM. The Activity [3] was 0 Zone units, the GI50 (NCI-H226) was over 15 µM and the Activity (L1210) was 60 Zone units. The Activity (PO3) was 40 Zone units, the GI50 (T47D) was over 15 µM and the GI50 (NCI-H460) was over 15 µM. For the same molecule, the GI50 (SN12C) was 9.48 µM, the GI50 (HCT-15) was over 15 µM and the GI50 (SK-MEL-2) was over 15 µM. For the same molecule, the GI50 (OVCAR-5) was over 15 µM, the GI50 (MCF7) was over 15 µM and the GI50 (NCI-H322M) was over 15 µM. The GI50 (SK-MEL-5) was over 15 µM, the GI50 (HL-60(TB)) was 2.88 µM and the GI50 [4] was 1.86 µM. It also gave a GI50 (HCC 2998) of over 15 µM, a GI50 (SK-OV-3) of over 15 µM and a GI50 (COLO 205) of over 15 µM. For the same molecule, the GI50 (BT-549) was over 15 µM, the Activity [5] was 30 Zone units and the GI50 (EKVX) was over 15 µM. The GI50 (UO-31) was over 15 µM, the GI50 (MDA-MB-435) was over 15 µM and the GI50 (786-0) was over 15 µM. For the same molecule, the GI50 (HT-29) was over 15 µM, the GI50 (SK-MEL-28) was over 15 µM and the GI50 (UACC-257) was over 15 µM. For the same molecule, the GI50 (ACHN) was over 15 µM, the GI50 (MDA-N) was over 15 µM and the GI50 (A498) was over 15 µM. The GI50 (NCI-H23) was over 15 µM, the GI50 (SF-539) was over 15 µM and the GI50 (IGROV-1) was 9.53 µM. The GI50 (U-251) was over 15 µM, the GI50 (SW-620) was 6.34 µM and the GI50 (DU-145) was over 15 µM. It also gave a GI50 (M14) of under 0.0015 µM, a GI50 (CAKI-1) of over 15 µM and an Activity (P388) of 60 Zone units. The GI50 (SNB-19) was under 0.0015 µM, the GI50 (HOP-92) was over 15 µM and the GI50 (MOLT-4) was 2.08 µM. It also gave a GI50 (CCRF-CEM) of 2.94 µM, a GI50 (MDA-MB-231) of over 15 µM and a GI50 (UACC-62) of over 15 µM. For the same molecule, the GI50 (OVCAR-3) was over 15 µM, the GI50 (OVCAR-8) was over 15 µM and the GI50 (KM12) was 8.61 µM. For the same molecule, the GI50 (SF-295) was over 15 µM, the GI50 (RXF 393) was over 15 µM and the GI50 (SNB-75) was 5.15 µM. For the same molecule, the GI50 (NCI-H522) was over 15 µM, the GI50 (SR) was 4.94 µM and the GI50 (OVCAR-4) was over 15 µM.

With `CC1=C(CC/C(C)=C/CC[C@@]2(C)CC[C@H]([C@H](C)C(=O)O)OO2)C(C)(C)CCC1` the GI50 [1] was over 5 µM, the GI50 (A549) was over 5 µM and the GI50 (HCT-116) was over 5 µM. It also gave a GI50 (HOP-62) of over 5 µM, an Activity [3] of 80 Zone units and a GI50 (NCI-H226) of over 5 µM. For the same molecule, the Activity (L1210) was 110 Zone units, the Activity (PO3) was 40 Zone units and the GI50 (LOX IMVI) was 2.17 µM. The GI50 (T47D) was over 5 µM, the GI50 (NCI-H460) was over 5 µM and the GI50 (SN12C) was over 5 µM. For the same molecule, the GI50 (HCT-15) was over 5 µM, the GI50 (SK-MEL-2) was over 5 µM and the GI50 (OVCAR-5) was over 5 µM. It also gave a GI50 (MCF7) of over 5 µM, a GI50 (NCI-H322M) of over 5 µM and a GI50 (SK-MEL-5) of over 5 µM. The GI50 (HL-60(TB)) was 1.77 µM, the GI50 (HCC 2998) was over 5 µM and the GI50 (SK-OV-3) was over 5 µM. It also gave a GI50 (COLO 205) of over 5 µM, a GI50 (BT-549) of over 5 µM and an Activity [5] of 80 Zone units. It also gave a GI50 (EKVX) of over 5 µM, a GI50 (UO-31) of over 5 µM and a GI50 (MDA-MB-435) of over 5 µM. It also gave a GI50 (786-0) of over 5 µM, a GI50 (SF-268) of over 5 µM and a GI50 (HT-29) of over 5 µM. The GI50 (SK-MEL-28) was 0.43 µM, the GI50 (UACC-257) was over 5 µM and the GI50 (ACHN) was over 5 µM. For the same molecule, the GI50 (MDA-N) was over 5 µM, the GI50 (A498) was over 5 µM and the GI50 (TK-10) was over 5 µM. For the same molecule, the GI50 (NCI-H23) was over 5 µM, the GI50 (SF-539) was over 5 µM and the GI50 (IGROV-1) was 1.11 µM. It also gave a GI50 (U-251) of over 5 µM, a GI50 (SW-620) of over 5 µM and an Activity (MC-38) of 60 Zone units. It also gave a GI50 (PC-3) of over 5 µM, a GI50 (M14) of over 5 µM and an Activity (CX-1) of 100 Zone units. The GI50 (CAKI-1) was over 5 µM, the Activity (P388) was 110 Zone units and the GI50 (SNB-19) was over 5 µM. It also gave a GI50 (HOP-92) of over 5 µM, a GI50 (MOLT-4) of over 5 µM and a GI50 (MDA-MB-231) of over 5 µM. For the same molecule, the GI50 (OVCAR-3) was over 5 µM, the GI50 (OVCAR-8) was over 5 µM and the GI50 (KM12) was over 5 µM. It also gave a GI50 (SF-295) of over 5 µM, a GI50 (RXF 393) of over 5 µM and a GI50 (SNB-75) of over 5 µM. The GI50 (OVCAR-4) was over 5 µM.
